Measurements from patent US9932479B2, “Dyes and compositions, and processes for using same in analysis of protein aggregation and other applications” (Enzo Biochem, Inc., priority 2009, dated 2018).

What was measured:
[1] = system: goat-anti-mouse IgG aggregate; assay: Fluorescence enhancement (aggregate/native IgG) in the presence of excipients; format: binding; details: for Fluorescence enhancement (aggregate/native IgG): 2.8 μM IgG, 0.625 μM dye; for Fluorescence enhancement (aggregate/native IgG), Average: Average over all excipient conditions
Procedure: IgG aggregate was prepared by adjusting 5.83 mg/ml of purified goat-anti-mouse IgG (H&L, Pel Freez, Rogers, Ark.) to pH 2.7 using HCl and incubating at 22° C. for 24 hours. The assay was performed using 2.8 μM IgG, either native or aggregated, and a dye concentration of 0.625 μM. The protein and dye were mixed together for 15 minutes at 22° C., then this was further incubated in the presence of the excipients shown in the table. The fluorescence intensity of S-25, Tol3 and Y2150 were determined with a FLUOstar OPTIMA plate reader (BMG LABTECH) at excitation wavelength of 550 nm and emission wavelength of 610 nm; while the fluorescence intensity for Thioflavin-T was determined using a SpectraMAX GeminiXS (Molecular device, with Softmax Pro 7.0) using an excitation wavelength of 435 nm and emission wavelength of 495 nm. The fluorescence enhancement (aggregate/native IgG) is shown.

Rabbit-anti-goat IgG [2] = assay: Fluorescence response to unfolded versus aggregated IgG in 4.55 M urea; format: binding; details: 6.67 μM Tol3
Procedure: (B) A solution containing aggregated IgG (formed as in Example 13 (B)) or monomeric IgG at 0.033 mg/mL, 4.55 M urea and 6.67 μM Tol3 was prepared and transferred into a microplate. After incubating at 4° C. degree for about 10 minutes, the fluorescence was recorded. Two control solutions without IgG, but with the same concentration of TOl3, were included, one including 4.55M urea, another without urea. From the previous chemical shift curve generated (seen in FIG. 16 (A)), 4.55 M urea is known to unfold approximately 60% of the IgG.

[3] = Fluorescence excitation and emission spectra of dye freely dissolved in buffer; format: physicochemical; details: 50 mM Tris-HCl, pH 7.8, 10 μM dye, room temperature
Procedure: (§1) Fluorescent readings were carried out in 50 mM Tris-HCl, pH 7.8 using 10 μM dye. […] Fluorescence excitation and emission spectra were collected on a Cary Eclipse fluorescence spectrophotometer (Varian, Australia). Fluorescence spectra were measured with excitation and emission slit widths set to 5 nm, and at a constant PMT voltage. Spectroscopic measurements were performed in standard quartz cells. All measurements were made at the respective excitation maxima of each dye. All measurements were carried out at room temperature.

β-lactoglobulin (BLG) = molecular target: T1, β-lactoglobulin (BLG) (Bos taurus, UniProt P02754); assay: Thermal shift assay of BLG aggregation; format: binding; details: BLG 4 or 16 mg/mL, heating 28° C. to 90° C.
T1 sequence (P02754 17-178): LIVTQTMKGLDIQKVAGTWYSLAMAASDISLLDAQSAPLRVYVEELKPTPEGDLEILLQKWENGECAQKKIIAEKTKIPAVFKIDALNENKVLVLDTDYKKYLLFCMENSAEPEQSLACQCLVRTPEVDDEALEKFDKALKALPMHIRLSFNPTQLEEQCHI
Procedure: A solution containing 4 or 16 mg/mL of β-lactoglobulin (BLG) and 2×SYPRO® Orange dye (Molecular Probes, supplied as 5000× with unknown concentration) or 4 μM TOL3 or 4 μM S25 was prepared using 1×PBS, pH 7.4 as the dilution buffer. This solution was then loaded into LightCycler® capillaries (20 μL, Roche Diagnostics GmbH). These capillaries were then mounted on the sample holder of a LightCycler® 480 Real-Time PCR System (Roche), programmed to heat from 28° C. to 90° C. at 3° C./min, followed by cooling down to 28° C. at the same rate. The thermal shift curves were achieved by plotting fluorescence intensity vs. temperature. After the heating cycle, protein aggregates were visually apparent.

[4] = molecular target: T2, recombinant human alpha-synuclein (ASN) aggregate (Homo sapiens, UniProt P37840); assay: Fluorescence excitation and emission spectra of dye in the presence of aggregated alpha-synuclein; format: binding; details: 1 μM aggregated ASN, 50 mM Tris-HCl, pH 7.8, 10 μM dye
T2 construct: purchased Sigma-Aldrich
Procedure: as §1

Rabbit-anti-goat IgG [5] = assay: Chemical shift assay based on internal tryptophan fluorescence; format: biochemical; details: 4.55 M urea; from chemical shift curve FIG. 16 (A)
Procedure: (A) Chemical shift assay based on internal tryptophan fluorescence: Rabbit-anti-goat IgG (Pel Freeze) in 1×PBS buffer of pH 7.4 was mixed with urea in 1×PBS to achieve a final IgG concentration of 0.25 mg/mL. After mixing on ice for 10 minutes, the fluorescence emission intensity at 330 nm was recorded by exciting at 280 nm using a MD-5020 fluorimeter (Phototechnology International). A chemical shift curve was plotted based on internal tryptophan fluorescence intensity at each given urea concentration. Urea denatures proteins but prevents them from aggregating.

Hen Egg White Lysozyme = molecular target: T3, Hen Egg White Lysozyme (Gallus gallus, UniProt P00698); assay: Inhibition of Lysozyme aggregation at pH 12.2, S-25/Tol3 readout; format: biochemical; details: 510 μM Chitotriose, 300 μM Lysozyme, aggregation induced at pH 12.2
T3 construct: Hen egg white lysozyme was solubilized in 10 mM HCl; from tissue; host or cells: hen egg white
T3 sequence (P00698 19-147): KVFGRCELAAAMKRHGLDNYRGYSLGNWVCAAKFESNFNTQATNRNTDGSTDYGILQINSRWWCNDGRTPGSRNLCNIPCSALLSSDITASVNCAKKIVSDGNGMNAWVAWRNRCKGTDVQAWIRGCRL
Procedure: Hen egg white Lysozyme (300 μM) was incubated with or without N,N′,N″-triacetyl-chitotriose (Chitotriose, 510 μM) in 10 mM potassium phosphate, pH 7.3 for 16 hours. Aggregation was induced by 3.5 fold dilution into 50 mM potassium phosphate, pH 12.2. Aggregation was followed by removing an aliquot of the protein and diluting such that the final composition was 20 μM protein, 50 mM potassium phosphate, pH 7, 3 μM S-25 and 3 μM Tol3. Protein was incubated with dye for 15 minutes prior to determining the fluorescence using a BioTek Synergy Mx plate scanner, with excitation setting at 515 nm and emission setting at 603 nm, both with a 9 nm slit-width. The zero time point was taken before dilution to pH 12.2. Readings were taken in at least triplicate in a Greiner μClear black, clear bottom 96-well microplate. Aggregation was followed for several weeks at room temperature (19°-23° C.).

| SMILES | Fluorescence enhancement (aggregate/native IgG) ([1]; Ammonium Sulfate, 10 mM) [fold] | Fluorescence enhancement (aggregate/native IgG) ([1]; Ammonium Sulfate, 100 mM) [fold] | Fluorescence enhancement (aggregate/native IgG) ([1]; Ammonium Sulfate, 300 mM) [fold] | Fluorescence enhancement (aggregate/native IgG) ([1]; Arginine, 200 mM) [fold] | Fluorescence enhancement (aggregate/native IgG) ([1]; Arginine, 500 mM) [fold] | Fluorescence enhancement (aggregate/native IgG) ([1]; Ascoric Acid, 1 mM) [fold] | Fluorescence enhancement (aggregate/native IgG), Average [1] [fold] | Fluorescence enhancement (aggregate/native IgG) ([1]; Calcium Chloride, 10 mM) [fold] | Fluorescence enhancement (aggregate/native IgG) ([1]; Calcium Chloride, 50 mM) [fold] | Fluorescence enhancement (aggregate/native IgG) ([1]; Calcium Chloride, 200 mM) [fold] | Fluorescence enhancement (aggregate/native IgG) ([1]; DTT, 1 mM) [fold] | Fluorescence enhancement (aggregate/native IgG) ([1]; Glycine, 0.5%) [fold] | Fluorescence enhancement (aggregate/native IgG) ([1]; Glycine, 2%) [fold] | Fluorescence enhancement (aggregate/native IgG) ([1]; Lactose, 100 mM) [fold] | Fluorescence enhancement (aggregate/native IgG) ([1]; Lactose, 300 mM) [fold] | Fluorescence enhancement (aggregate/native IgG) ([1]; Mannitol, 100 mM) [fold] | Fluorescence enhancement (aggregate/native IgG) ([1]; Mannitol, 300 mM) [fold] | Fluorescence enhancement (aggregate/native IgG) ([1]; Mannitol, 600 mM) [fold] | Fluorescence enhancement (aggregate/native IgG) ([1]; Sodium Chloride, 10 mM) [fold] | Fluorescence enhancement (aggregate/native IgG) ([1]; Sodium Chloride, 100 mM) [fold] | other results |
| --- | --- | --- | --- | --- | --- | --- | --- | --- | --- | --- | --- | --- | --- | --- | --- | --- | --- | --- | --- | --- | --- |
| Cc1c[n+](CCCCCCCCCC[n+]2ccc(/C=C/c3ccc(N(C)C)cc3)c(C)c2)ccc1/C=C/c1ccc(N(C)C)cc1 [TOL3] | 15.6 | 13.4 | 16.9 | 18.6 | 17.6 | 15.4 | 17.6 | 14.9 | 13.9 | 14.8 | 13.8 | 16.3 | 15.5 | 19.9 | 34.6 | 17.5 | 25.2 | 27.5 | 16.0 | 16.2 | Fluorescence enhancement (aggregate/native IgG) ([1]; Sodium Chloride, 1000 mM): 17.4 fold; Fluorescence enhancement (aggregate/native IgG) ([1]; Sorbitol, 100 mM): 20.0 fold; Fluorescence enhancement (aggregate/native IgG) ([1]; Sorbitol, 300 mM): 19.2 fold; Fluorescence enhancement (aggregate/native IgG) ([1]; Sorbitol, 600 mM): 29.3 fold; Fluorescence enhancement (aggregate/native IgG) ([1]; Trehalose, 100 mM): 18.9 fold; Fluorescence enhancement (aggregate/native IgG) ([1]; Trehalose, 300 mM): 20.1 fold; Fluorescence enhancement (aggregate/native IgG) ([1]; Trehalose, 600 mM): 30.4 fold; Fluorescence enhancement (aggregate/native IgG) ([1]; Tween 20, 0.01%): 8.5 fold; Fluorescence enhancement (aggregate/native IgG) ([1]; Tween 20, 0.2%): 3.4 fold; Fluorescence enhancement (aggregate/native IgG) ([1]; X100, 0.01%): 6.2 fold; Fluorescence enhancement (aggregate/native IgG) ([1]; X100, 0.2%): 3.4 fold; Fluorescence enhancement (aggregate/native IgG) ([1]; X100, 1%): 1.9 fold; Fluorescence enhancement with IgG aggregates relative to controls without IgG (Rabbit-anti-goat IgG [2]; aggregated IgG 0.033 mg/mL): significant fluorescence enhancement; Fluorescence enhancement with unfolded IgG monomer relative to controls without IgG (Rabbit-anti-goat IgG [2]; monomeric IgG 0.033 mg/mL): insignificant fluorescence enhancement; Dye freely dissolved in buffer: Emission wavelength [3]: 611 nm; Dye freely dissolved in buffer: Excitation wavelength [3]: 471 nm; Detection of BLG thermal shift (melting) peak (β-lactoglobulin (BLG)): able to detect BLG thermal shift peaks; In the presence of aggregate: Emission wavelength [4]: 603 nm; In the presence of aggregate: Excitation wavelength [4]: 511 nm |
| CN(C)c1ccc(/C=C/c2cc[n+](CCCCCC[n+]3ccc(/C=C/c4ccc(N(C)C)cc4)cc3)cc2)cc1.CS(=O)(=O)[O-].CS(=O)(=O)[O-] [Dye S25] | 15.4 | 14.6 | 13.3 | 14.8 | 13.5 | 13.9 | 19.3 | 9.7 | 9.6 | 6.7 | 13.2 | 14.1 | 15.1 | 23.0 | 38.9 | 16.7 | 15.2 | 20.9 | 14.0 | 13.6 | Fluorescence enhancement (aggregate/native IgG) ([1]; Sodium Chloride, 1000 mM): 11.7 fold; Fluorescence enhancement (aggregate/native IgG) ([1]; Sorbitol, 100 mM): 16.4 fold; Fluorescence enhancement (aggregate/native IgG) ([1]; Sorbitol, 300 mM): 21.0 fold; Fluorescence enhancement (aggregate/native IgG) ([1]; Sorbitol, 600 mM): 25.4 fold; Fluorescence enhancement (aggregate/native IgG) ([1]; Trehalose, 100 mM): 17.8 fold; Fluorescence enhancement (aggregate/native IgG) ([1]; Trehalose, 300 mM): 32.1 fold; Fluorescence enhancement (aggregate/native IgG) ([1]; Trehalose, 600 mM): 30.1 fold; Fluorescence enhancement (aggregate/native IgG) ([1]; Tween 20, 0.01%): 70.8 fold; Fluorescence enhancement (aggregate/native IgG) ([1]; Tween 20, 0.2%): 26.7 fold; Fluorescence enhancement (aggregate/native IgG) ([1]; X100, 0.01%): 19.2 fold; Fluorescence enhancement (aggregate/native IgG) ([1]; X100, 0.2%): 7.3 fold; Fluorescence enhancement (aggregate/native IgG) ([1]; X100, 1%): 2.9 fold; Dye freely dissolved in buffer: Emission wavelength [3]: 613 nm; Dye freely dissolved in buffer: Excitation wavelength [3]: 485 nm; Detection of BLG thermal shift (melting) peak (β-lactoglobulin (BLG)): able to detect BLG thermal shift peaks; In the presence of aggregate: Emission wavelength [4]: 607 nm; In the presence of aggregate: Excitation wavelength [4]: 516 nm |
| NC(N)=O [urea] | – | – | – | – | – | – | – | – | – | – | – | – | – | – | – | – | – | – | – | – | IgG unfolded (Rabbit-anti-goat IgG [5]): approximately 60% |
| CC(=O)N[C@H]1[C@H](O[C@H]2[C@H](O)[C@@H](NC(C)=O)C(O)O[C@@H]2CO)O[C@H](CO)[C@@H](O[C@@H]2O[C@H](CO)[C@@H](O)[C@H](O)[C@H]2NC(C)=O)[C@@H]1O (stereo partly drawn) [Chitotriose, N,N′,N″-triacetyl-chitotriose] | – | – | – | – | – | – | – | – | – | – | – | – | – | – | – | – | – | – | – | – | Effect on Lysozyme aggregation (Hen Egg White Lysozyme): inhibits Lysozyme aggregation |
